This experiment deals with P388 leukemia ip, CD2F1 mice, survival T/C. Nature of the experiment: NCI In Vivo Anticancer Drug Screen. Data for tumor model P388 Leukemia (intraperitoneal) in CD2F1 (CDF1) mice. To be noted: endpoint: median survival time, higher = longer survival. Put shortly:
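Mice carrying the transplanted tumor received test compound or vehicle. Survival was recorded in each group, and the value is the treated-group measurement divided by that of the vehicle-treated control group.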

[1] abbreviates: dose: 60.0 mg/kg/injection, schedule: Q01DX005 (ip), vehicle: saline with Tween-80.
Setting [2] is: dose: 120.0 mg/kg/injection, schedule: Q01DX005 (ip), vehicle: saline with Tween-80.
The mark [3] stands for this setting: dose: 240.0 mg/kg/injection, schedule: Q01DX005 (ip), vehicle: saline with Tween-80.
Setting [4] is: dose: 100.0 mg/kg/injection, schedule: Q01DX009 (ip), vehicle: saline with Tween-80.
Where [5] appears, read: dose: 200.0 mg/kg/injection, schedule: Q01DX009 (ip), vehicle: saline with Tween-80.
Setting [6] is: dose: 400.0 mg/kg/injection, schedule: Q01DX009 (ip), vehicle: saline with Tween-80.
The mark [7] stands for this setting: dose: 100.0 mg/kg/injection, schedule: Q04DX002 (ip), vehicle: Klucel (hydroxypropylcellulose) (HPC).
Setting [8] is: dose: 200.0 mg/kg/injection, schedule: Q04DX002 (ip), vehicle: Klucel (hydroxypropylcellulose) (HPC).
Where [9] appears, read: dose: 400.0 mg/kg/injection, schedule: Q04DX002 (ip), vehicle: Klucel (hydroxypropylcellulose) (HPC).
Setting [10] is: dose: 50.0 mg/kg/injection, schedule: Q01DX009 (ip), vehicle: saline with Tween-80.
The mark [11] stands for this setting: dose: 50.0 mg/kg/injection, schedule: Q01DX009 (ip), vehicle: saline.
Where [12] appears, read: dose: 100.0 mg/kg/injection, schedule: Q01DX009 (ip), vehicle: saline.
[13] abbreviates: dose: 200.0 mg/kg/injection, schedule: Q01DX009 (ip), vehicle: saline.
The mark [14] stands for this setting: dose: 50.0 mg/kg/injection, schedule: Q01DX005 (ip), vehicle: saline with Tween-80.
Setting [15] is: dose: 100.0 mg/kg/injection, schedule: Q01DX005 (ip), vehicle: saline with Tween-80.
[16] abbreviates: dose: 200.0 mg/kg/injection, schedule: Q01DX005 (ip), vehicle: saline with Tween-80.
The mark [17] stands for this setting: dose: 100.0 mg/kg/injection, schedule: Q04DX003 (ip), vehicle: saline with Tween-80.
Setting [18] is: dose: 200.0 mg/kg/injection, schedule: Q04DX003 (ip), vehicle: saline with Tween-80.
Setting [19] is: dose: 400.0 mg/kg/injection, schedule: Q04DX003 (ip), vehicle: saline with Tween-80.
The mark [20] stands for this setting: dose: 50.0 mg/kg/injection, schedule: Q01DX009 (ip), vehicle: other.
Setting [21] is: dose: 100.0 mg/kg/injection, schedule: Q01DX009 (ip), vehicle: other.
[22] abbreviates: dose: 50.0 mg/kg/injection, schedule: Q01DX009 (ip), vehicle: Klucel (hydroxypropylcellulose) (HPC).
The mark [23] stands for this setting: dose: 100.0 mg/kg/injection, schedule: Q01DX009 (ip), vehicle: Klucel (hydroxypropylcellulose) (HPC).
Where [24] appears, read: dose: 200.0 mg/kg/injection, schedule: Q01DX009 (ip), vehicle: Klucel (hydroxypropylcellulose) (HPC).

The record followed here is PubChem BioAssay AID330 (DTP/NCI, 2004).

Each structure is given as a SMILES string. Where “and” joins values, the source holds several entries; their conditions need not be identical. Equal values may be shown once. Inconclusive results and toxic doses are left out.

On to `N=c1c2ncn3c(=O)n(-c4ccccc4)c(nc(=O)n1-c1ccccc1)c23`, for which the T/C is, setting by setting: under setting [1], 101 % of control; under setting [2], 100 % of control; under setting [3], 98 % of control.

Regarding `COc1cc2c(c(OC)c1OC)-c1oncc1CC2`, the T/C is 90 % of control (dose: 100.0 mg/kg/injection, schedule: Q04DX003 (ip), vehicle: Klucel (hydroxypropylcellulose) (HPC)); 92 % of control (dose: 200.0 mg/kg/injection, schedule: Q04DX003 (ip), vehicle: Klucel (hydroxypropylcellulose) (HPC)); 87 % of control (dose: 400.0 mg/kg/injection, schedule: Q04DX003 (ip), vehicle: Klucel (hydroxypropylcellulose) (HPC)).

For the compound `O=C1OCC(C(=O)N2Cc3cc4ccccc4nc3C2)C1CO` (stereo not drawn), the T/C by setting is: under setting [4], 94 % of control; under setting [5], 115 % of control; under setting [6], 105 % of control.

As for `O=C(O)c1ccccc1Cc1cccc2ccccc12`, the T/C was 91 % of control under setting [7], 96 % of control under setting [8] and 99 % of control under setting [9].

Regarding `CCOC(=O)NC(=S)Nc1cccs1`, the T/C runs as follows: under setting [10], 91 % of control; under setting [4], 100 % of control; under setting [5], 101 % of control.

For the compound `OC1CC2CC1CC2O` (stereo not drawn), the T/C runs as follows: under setting [11], 101 % of control; under setting [12], 98 % of control; under setting [13], 104 % of control.

Take `Cc1[nH]nc2c1NC(=O)OC(C)C2` (stereo not drawn): the T/C reads like this: under setting [14], 101 % of control; under setting [15], 101 % of control; under setting [16], 106 % of control.

For the compound `CCCCNC(=S)NC(c1ccc(OC)cc1)C(CC)c1ccc(OC)cc1` (stereo not drawn), the T/C was 90 % of control (dose: 100.0 mg/kg/injection, schedule: Q04DX002 (ip), vehicle: saline with Tween-80); 88 % of control (dose: 200.0 mg/kg/injection, schedule: Q04DX002 (ip), vehicle: saline with Tween-80); 90 % of control (dose: 400.0 mg/kg/injection, schedule: Q04DX002 (ip), vehicle: saline with Tween-80).

Take `COc1ccc(CN2COc3c(cc(C)c4cccnc34)C2)cc1`: the T/C is 98 % of control under setting [10] and 111 % of control under setting [5].

Take `CCCCCC(C)(O)C1=NCCN1` (stereo not drawn): the T/C runs as follows: (dose: 12.5 mg/kg/injection, schedule: Q01DX005 (ip), vehicle: Klucel (hydroxypropylcellulose) (HPC)) 97 % of control; (dose: 25.0 mg/kg/injection, schedule: Q01DX005 (ip), vehicle: Klucel (hydroxypropylcellulose) (HPC)) 95 % of control; (dose: 50.0 mg/kg/injection, schedule: Q01DX005 (ip), vehicle: Klucel (hydroxypropylcellulose) (HPC)) 100 % of control and 93 % of control.

For `COc1cccc(C(=O)O)c1OC`, the T/C by setting is: under setting [17], 100 % of control; under setting [18], 100 % of control; under setting [19], 90 % of control.

With `COc1cc2c(c(OC)c1OC)-c1ccc(SC)c(=O)cc1[C@@H](NC(=O)CO)CC2`, the T/C reads like this: (dose: 0.1 mg/kg/injection, schedule: Q01DX009 (ip), vehicle: other) 150 % of control; (dose: 0.2 mg/kg/injection, schedule: Q01DX009 (ip), vehicle: other) 157 % of control and 172 % of control.

On to `O=C(Nc1ccc(CCO)cc1)c1cccc(F)c1`, for which the T/C is, setting by setting: under setting [1], 93 % of control; under setting [2], 86 % of control; under setting [3], 86 % of control.

As for `COc1ccc(COC(=O)Nc2ccccc2F)c(OC)c1OC`, the T/C is, setting by setting: under setting [14], 91 % of control; under setting [15], 101 % of control; under setting [16], 100 % of control.

For the compound `C=CCc1ccc(O)c(OC)c1`, the T/C reads like this: under setting [20], 101 % of control; under setting [21], 107 % of control.

Consider `CCC[CH2][Sn]([CH2]CCC)([CH2]CCC)[CH2]CCN(C)C`, for which the T/C was 99 % of control under setting [11] and 100 % of control under setting [12].

As for `CC(C)(/C=C/c1ccccc1)N=Cc1ccccc1`, the T/C under setting [1] is 100 % of control, the T/C under setting [2] was 104 % of control and the T/C under setting [3] is 98 % of control.

On to `CC(=O)c1cc(C(=O)O)c(O)c2ccccc12`, for which the T/C under setting [22] is 90 % of control and the T/C under setting [23] is 92 % of control.

As to `C[n+]1ccc(-c2cc[n+](C)cc2)cc1`, the T/C (dose: 0.39 mg/kg/injection, schedule: Q01DX009 (ip), vehicle: saline) is 98 % of control; the T/C (dose: 0.78 mg/kg/injection, schedule: Q01DX009 (ip), vehicle: saline) was 109 % of control; the T/C (dose: 1.56 mg/kg/injection, schedule: Q01DX009 (ip), vehicle: saline) was 103 % of control and 109 % of control; the T/C (dose: 3.12 mg/kg/injection, schedule: Q01DX009 (ip), vehicle: saline) was 100 % of control and 89 % of control; the T/C (dose: 6.25 mg/kg/injection, schedule: Q01DX009 (ip), vehicle: saline) is 87 % of control.

Take `O=C1CS(=O)(=O)CN1N1CS(=O)(=O)CC1=O`: the T/C is 102 % of control under setting [14], 98 % of control under setting [15] and 98 % of control under setting [16].

Take `Cc1c(Cl)cccc1NC(=O)c1cccc([N+](=O)[O-])c1O`: the T/C was 102 % of control under setting [10] and 93 % of control under setting [4].

Consider `Cc1ccc(N2C(=O)CCSC2=S)cc1C`, for which the T/C is 108 % of control (dose: 50.0 mg/kg/injection, schedule: Q01DX009 (ip), vehicle: suspension in saline); 89 % of control (dose: 100.0 mg/kg/injection, schedule: Q01DX009 (ip), vehicle: suspension in saline); 99 % of control (dose: 200.0 mg/kg/injection, schedule: Q01DX009 (ip), vehicle: suspension in saline).

As to `NCC1CCCCO1` (stereo not drawn), the T/C is 98 % of control (dose: 50.0 mg/kg/injection, schedule: Q01DX005 (ip), vehicle: saline); 99 % of control (dose: 100.0 mg/kg/injection, schedule: Q01DX005 (ip), vehicle: saline); 91 % of control (dose: 200.0 mg/kg/injection, schedule: Q01DX005 (ip), vehicle: saline).

On to `O=S1(=O)CCN(C2CCCC2)CC1`, for which the T/C by setting is: (dose: 25.0 mg/kg/injection, schedule: Q01DX009 (ip), vehicle: Klucel (hydroxypropylcellulose) (HPC)) 94 % of control; under setting [22], 93 % of control and 95 % of control; under setting [23], 92 % of control and 95 % of control; under setting [24], 99 % of control and 94 % of control.

Take `Cn1c(=O)c2cc(O)cnc2n(C)c1=O`: the T/C is 95 % of control under setting [17], 91 % of control under setting [18] and 86 % of control under setting [19].

`Clc1cc(Cl)c2n[se]nc2n1`: the T/C (dose: 25.0 mg/kg/injection, schedule: Q04DX002 (ip), vehicle: saline) was 100 % of control; the T/C (dose: 50.0 mg/kg/injection, schedule: Q04DX002 (ip), vehicle: saline) was 106 % of control; the T/C (dose: 100.0 mg/kg/injection, schedule: Q04DX002 (ip), vehicle: saline) is 116 % of control and 123 % of control.

For the compound `CCCCC(NC(=O)CCl)C(=O)O` (stereo not drawn), the T/C reads like this: under setting [11], 98 % of control; under setting [12], 95 % of control; under setting [13], 98 % of control.

`COc1ccc(C(=O)c2ncccc2C)cc1OC`: the T/C under setting [20] is 95 % of control; the T/C under setting [21] is 99 % of control; the T/C (dose: 200.0 mg/kg/injection, schedule: Q01DX009 (ip), vehicle: other) is 95 % of control.

Consider `NC(=O)Cc1noc2ccccc12`, for which the T/C under setting [6] is 106 % of control and 88 % of control.

For the compound `Clc1ccccc1C(=Nc1ccccc1)C(=Nc1ccccc1)c1ccccc1Cl`, the T/C by setting is: under setting [7], 99 % of control; under setting [8], 102 % of control; under setting [9], 96 % of control.

For `O=C1N/C(=N/OF)C(F)C(NO)N1` (stereo not drawn), the T/C is 103 % of control under setting [22], 103 % of control under setting [23] and 101 % of control under setting [24].

Turning to `CCOC(=O)Nc1nn(-c2ccc3ccccc3n2)c(=O)[nH]1`, the T/C runs as follows: under setting [22], 113 % of control; under setting [23], 109 % of control; under setting [24], 118 % of control.

With `CN(C)P(=O)(N=S=NC(C)(C)C)N(C)C`, the T/C under setting [11] was 109 % of control and the T/C under setting [12] was 115 % of control.
